Measurements from patent US20180099931A1 (AbbVie S.à.r.l., priority 2016, published 2018).
Like-named read-outs stand apart in the source and are kept apart here.

Biological target: T1, F508delCFTR (Homo sapiens, UniProt P13569, DEL508-508)
T1 construct: expressed in transfected cells; host or cells: CFBE41o- human lung-derived epithelial cells (CFBE4lo-F508delCFTR-HRP), doxycycline-inducible
Test: Cell Surface Expression-Horse Radish Peroxidase (CSE-HRP) Assay;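 as to Maximum % activity (with co-corrector): co-corrector and positive control are both the same reference corrector at 2 µM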;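 as to Maximum % activity (without co-corrector): percent of the 2 µM on-plate positive control corrector response above DMSO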
Format: cell-based
Details: for Maximum % activity (with co-corrector): with co-corrector (2 μM); for Maximum % activity (with co-corrector) / Emax: maximum at any tested concentration, normalized to on-plate positive control; for Emax: without co-corrector, read-out: Maximum % activity (without co-corrector)

[1] = test compound without co-corrector, read-out: EC50 (without co-corrector)
[2] = with co-corrector (2 μM of 3-[(2R,4R)-4-({[1-(2,2-difluoro-1,3-benzodioxol-5-yl)cyclopropyl]carbonyl}amino)-7-methoxy-3,4-dihydro-2H-chromen-2-yl]benzoic acid), read-out: EC50 (with co-corrector)

T1 sequence (P13569 with tags, fused parts or gaps DEL508-508): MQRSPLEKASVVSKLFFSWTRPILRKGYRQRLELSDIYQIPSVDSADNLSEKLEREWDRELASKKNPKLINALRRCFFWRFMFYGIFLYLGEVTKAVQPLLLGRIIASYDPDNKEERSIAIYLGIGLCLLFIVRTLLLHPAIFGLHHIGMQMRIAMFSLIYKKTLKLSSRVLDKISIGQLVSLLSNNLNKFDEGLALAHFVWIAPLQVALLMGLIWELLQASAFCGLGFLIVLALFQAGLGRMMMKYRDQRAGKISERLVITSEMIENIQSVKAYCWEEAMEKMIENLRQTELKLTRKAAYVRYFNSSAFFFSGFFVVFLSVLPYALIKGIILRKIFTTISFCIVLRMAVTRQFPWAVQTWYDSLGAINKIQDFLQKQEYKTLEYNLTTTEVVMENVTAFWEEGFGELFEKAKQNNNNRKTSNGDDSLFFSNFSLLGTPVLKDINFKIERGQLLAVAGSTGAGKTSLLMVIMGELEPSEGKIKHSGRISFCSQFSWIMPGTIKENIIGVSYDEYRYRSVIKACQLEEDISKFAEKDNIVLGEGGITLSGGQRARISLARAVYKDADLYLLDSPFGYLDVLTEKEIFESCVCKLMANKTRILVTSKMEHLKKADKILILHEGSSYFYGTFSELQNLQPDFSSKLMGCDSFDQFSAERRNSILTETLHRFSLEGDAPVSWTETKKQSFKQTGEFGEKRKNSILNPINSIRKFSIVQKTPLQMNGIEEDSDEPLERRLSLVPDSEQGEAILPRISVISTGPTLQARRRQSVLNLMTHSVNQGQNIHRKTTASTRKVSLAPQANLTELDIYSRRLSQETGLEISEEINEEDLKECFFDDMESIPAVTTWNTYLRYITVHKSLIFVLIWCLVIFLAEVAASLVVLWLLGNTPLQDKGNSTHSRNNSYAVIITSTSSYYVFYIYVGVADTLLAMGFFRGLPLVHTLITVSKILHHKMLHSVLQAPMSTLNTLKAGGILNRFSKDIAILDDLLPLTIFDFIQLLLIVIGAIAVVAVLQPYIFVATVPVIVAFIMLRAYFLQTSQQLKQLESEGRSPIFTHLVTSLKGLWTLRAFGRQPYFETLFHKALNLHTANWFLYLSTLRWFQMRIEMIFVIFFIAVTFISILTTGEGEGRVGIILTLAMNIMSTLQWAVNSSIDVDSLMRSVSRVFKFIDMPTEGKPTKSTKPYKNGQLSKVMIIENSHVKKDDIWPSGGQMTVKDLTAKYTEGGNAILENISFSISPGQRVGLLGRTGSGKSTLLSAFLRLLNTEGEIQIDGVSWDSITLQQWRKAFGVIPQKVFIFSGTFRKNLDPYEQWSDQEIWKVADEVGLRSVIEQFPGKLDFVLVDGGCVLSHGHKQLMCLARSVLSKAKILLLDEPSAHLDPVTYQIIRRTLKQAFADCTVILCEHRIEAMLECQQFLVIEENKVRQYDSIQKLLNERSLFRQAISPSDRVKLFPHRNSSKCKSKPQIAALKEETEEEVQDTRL

SMILES | EC50 [1] [nM] | EC50 [2] [nM] | Maximum % activity (with co-corrector) | Emax [%]
CCCC1(O)CCC(C(=O)N2C(C(=O)O)C(C(C)(C)C)C(NCc3cc(C(C)(C)C)ccc3OC)C2c2ccccc2)CC1 [Example 35, (2S,3S,4S,5S)-3-tert-butyl-4-{[(5-tert-butyl-2-methoxyphenyl)methyl]amino}-1-(cis-4-hydroxy-4-propylcyclohexane-1-carbonyl)-5-phenylpyrrolidine-2-carboxylic acid] | 1000 to 10000 | < 1000 | +++ (≥350) | > 200
COc1nc(C(C)(C)C)ccc1CN[C@H]1[C@H](C(C)(C)C)[C@@H](C(=O)O)N(C(=O)[C@@H]2CCCCO2)[C@H]1c1ccccc1 [Example 38, (2S,3S,4S,5S)-3-tert-butyl-4-{[(6-tert-butyl-2-methoxypyridin-3-yl)methyl]amino}-1-[(2S)-oxane-2-carbonyl]-5-phenylpyrrolidine-2-carboxylic acid] | 1000 to 10000 | < 1000 | +++ (≥350) | > 200
COc1nc(C(C)(C)C)ccc1CN[C@H]1[C@H](C(C)(C)C)[C@@H](C(=O)O)N(C(=O)[C@H]2CCCCO2)[C@H]1c1ccccc1 [Example 39, (2S,3S,4S,5S)-3-tert-butyl-4-{[(6-tert-butyl-2-methoxypyridin-3-yl)methyl]amino}-1-[(2R)-oxane-2-carbonyl]-5-phenylpyrrolidine-2-carboxylic acid] | 1000 to 10000 | 1000 to 10000 | +++ (≥350) | 100 to 200
COc1ccc(C(C)(C)C)cc1CN[C@H]1[C@H](C(C)(C)OC)[C@@H](C(=O)O)N(C(=O)C2CCCCC2)[C@H]1c1cccnc1OC [Example 40, (2S,3S,4S,5S)-4-{[(5-tert-butyl-2-methoxyphenyl)methyl]amino}-1-(cyclohexanecarbonyl)-3-(2-methoxypropan-2-yl)-5-(2-methoxypyridin-3-yl)pyrrolidine-2-carboxylic acid] | 1000 to 10000 | 1000 to 10000 | +++ (≥350) | > 200
COc1ccc(C(C)(C)C)cc1CN[C@H]1[C@H](C(C)(C)OC)[C@@H](C(=O)O)N(C(=O)C2CCCCC2)[C@H]1c1cccnc1N(C)C [Example 41, (2S,3S,4S,5S)-4-{[(5-tert-butyl-2-methoxyphenyl)methyl]amino}-1-(cyclohexanecarbonyl)-5-[2-(dimethylamino)pyridin-3-yl]-3-(2-methoxypropan-2-yl)pyrrolidine-2-carboxylic acid] | 1000 to 10000 | < 1000 | +++ (≥350) | > 200
COc1ccc(C(C)(C)C)cc1CN[C@H]1[C@H](C(C)(C)C)[C@@H](C(=O)O)N(C(=O)[C@H]2CCCCO2)[C@H]1c1ccccc1OC(F)F [Example 45, (2S,3S,4S,5S)-3-tert-butyl-4-{[(5-tert-butyl-2-methoxyphenyl)methyl]amino}-5-[2-(difluoromethoxy)phenyl]-1-[(2R)-oxane-2-carbonyl]pyrrolidine-2-carboxylic acid] | 1000 to 10000 | 1000 to 10000 | +++ (≥350) | 100 to 200
COc1ccc(C(C)(C)C)cc1CN[C@H]1[C@H](C(C)(C)C)[C@@H](C(=O)O)N(C(=O)C2C3CCCC32)[C@H]1c1ccccc1 (stereo partly drawn) [Example 46, (2S,3S,4S,5S)-1-(bicyclo[3.1.0]hexane-6-carbonyl)-3-tert-butyl-4-{[(5-tert-butyl-2-methoxyphenyl)methyl]amino}-5-phenylpyrrolidine-2-carboxylic acid] | 1000 to 10000 | < 1000 | +++ (≥350) | > 200
COc1ncc([Si](C)(C)C)cc1CN[C@H]1[C@H](C(C)(C)C)[C@@H](C(=O)O)N(C(=O)C2CCCCC2)[C@H]1c1ccccc1 [Example 47, (2S,3S,4S,5S)-3-tert-butyl-1-(cyclohexanecarbonyl)-4-({[2-methoxy-5-(trimethylsilyl)pyridin-3-yl]methyl}amino)-5-phenylpyrrolidine-2-carboxylic acid] | < 1000 | < 1000 | – | –
COc1cnc(C(C)(C)C)cc1CN[C@H]1[C@H](C(C)(C)C)[C@@H](C(=O)O)N(C(=O)C2CCCCC2)[C@H]1c1ccccc1 [Example 48, (2S,3S,4S,5S)-3-tert-butyl-4-{[(2-tert-butyl-5-methoxypyridin-4-yl)methyl]amino}-1-(cyclohexanecarbonyl)-5-phenylpyrrolidine-2-carboxylic acid] | 1000 to 10000 | 1000 to 10000 | +++ (≥350) | 100 to 200
COc1ncc(C(F)(F)F)cc1CN[C@H]1[C@H](C(C)(C)C)[C@@H](C(=O)O)N(C(=O)[C@@H]2CCCC(F)(F)C2)[C@H]1c1ccccc1 [Example 49, (2S,3S,4S,5S)-3-tert-butyl-1-[(1R)-3,3-difluorocyclohexane-1-carbonyl]-4-({[2-methoxy-5-(trifluoromethyl)pyridin-3-yl]methyl}amino)-5-phenylpyrrolidine-2-carboxylic acid] | 1000 to 10000 | < 1000 | +++ (≥350) | > 200
COc1ccc(C(C)(C)C)cc1CN[C@H]1[C@H](C(C)(C)C)[C@@H](C(=O)O)N(C(=O)[C@H]2CCCCO2)[C@H]1c1ccccc1F [Example 50, (2S,3S,4S,5S)-3-tert-butyl-4-{[(5-tert-butyl-2-methoxyphenyl)methyl]amino}-5-(2-fluorophenyl)-1-[(2R)-oxane-2-carbonyl]pyrrolidine-2-carboxylic acid] | 1000 to 10000 | 1000 to 10000 | +++ (≥350) | 100 to 200
COc1ccc(C23CC(C2)C3)cc1CN[C@H]1[C@H](C(C)(C)C)[C@@H](C(=O)O)N(C(=O)[C@@H]2CCCCO2)[C@H]1c1cccnc1N(C)C [Example 51, (2S,3S,4S,5S)-4-({[5-(bicyclo[1.1.1]pentan-1-yl)-2-methoxyphenyl]methyl}amino)-3-tert-butyl-5-[2-(dimethylamino)pyridin-3-yl]-1-[(2S)-oxane-2-carbonyl]pyrrolidine-2-carboxylic acid] | 1000 to 10000 | < 1000 | +++ (≥350) | > 200
COc1ccc(C23CC(C2)C3)cc1CN[C@H]1[C@H](C(C)(C)C)[C@@H](C(=O)O)N(C(=O)[C@H]2CCCCO2)[C@H]1c1cccnc1N(C)C [Example 52, (2S,3S,4S,5S)-4-({[5-(bicyclo[1.1.1]pentan-1-yl)-2-methoxyphenyl]methyl}amino)-3-tert-butyl-5-[2-(dimethylamino)pyridin-3-yl]-1-[(2R)-oxane-2-carbonyl]pyrrolidine-2-carboxylic acid] | 1000 to 10000 | 1000 to 10000 | +++ (≥350) | 100 to 200
COc1ccc(C(C)(C)C)cc1CN[C@H]1[C@H](C(C)(C)C)[C@@H](C(=O)O)N(C(=O)C2CC(C)(C)OC(C)(C)C2)[C@H]1c1ccccc1 [Example 54, (2S,3S,4S,5S)-3-tert-butyl-4-{[(5-tert-butyl-2-methoxyphenyl)methyl]amino}-5-phenyl-1-(2,2,6,6-tetramethyloxane-4-carbonyl)pyrrolidine-2-carboxylic acid] | 1000 to 10000 | < 1000 | +++ (≥350) | > 200
COc1ncc(C(C)(C)C)cc1N[C@H]1[C@H](C(C)(C)C)[C@@H](C(=O)O)N(C(=O)C2CCCCC2)[C@H]1c1ccccc1 [Example 55, (2S,3S,4S,5S)-3-tert-butyl-4-[(5-tert-butyl-2-methoxypyridin-3-yl)amino]-1-(cyclohexanecarbonyl)-5-phenylpyrrolidine-2-carboxylic acid] | 1000 to 10000 | 1000 to 10000 | ++ (≥150 and <350) | < 100
COc1ccc(C(F)(F)F)cc1CN[C@H]1[C@H](C23CC(C2)C3)[C@@H](C(=O)O)N(C(=O)C2CCCCC2)[C@H]1c1ccccc1 [Example 56] | 1000 to 10000 | < 1000 | +++ (≥350) | 100 to 200
COc1ncc(C(F)(F)F)cc1CN[C@H]1[C@H](C23CC(C2)C3)[C@@H](C(=O)O)N(C(=O)C2CCCCC2)[C@H]1c1ccccc1 [Example 57, (2S,3S,4S,5S)-3-(bicyclo[1.1.1.1]pentan-1-yl)-1-(cyclohexanecarbonyl)-4-({[2-methoxy-5-(trifluoromethyl)pyridin-3-yl]methyl}amino)-5-phenylpyrrolidine-2-carboxylic acid] | < 1000 | < 1000 | +++ (≥350) | 100 to 200
COc1ccc(C(C)(C)C)cc1CN[C@H]1[C@H](C(C)(C)C)[C@@H](C(=O)NS(C)(=O)=O)N(C(=O)C2CCCCC2)[C@H]1c1ccccc1 [Example 58, (2S,3S,4S,5S)-3-tert-butyl-4-{[(5-tert-butyl-2-methoxyphenyl)methyl]amino}-1-(cyclohexanecarbonyl)-N-(methanesulfonyl)-5-phenylpyrrolidine-2-carboxamide] | 1000 to 10000 | 1000 to 10000 | ++ (≥150 and <350) | < 100
COc1ccc(C(C)(C)C)cc1CN[C@H]1[C@H](C(C)(C)C)[C@@H](C(=O)O)N(C(=O)[C@@H]2CCCCO2)[C@H]1c1ccccc1OC(F)F [Example 59, (2S,3S,4S,5S)-3-tert-butyl-4-{[(5-tert-butyl-2-methoxyphenyl)methyl]amino}-5-[2-(difluoromethoxy)phenyl]-1-[(2S)-oxane-2-carbonyl]pyrrolidine-2-carboxylic acid] | 1000 to 10000 | < 1000 | +++ (≥350) | > 200
